Experimental data taken from ChEMBL document CHEMBL3885881, “DrugMatrix”.

Species: Rattus norvegicus
Assay: DrugMatrix - Regimen: Daily Repeat
Type: toxicity, organism-based, Sprague-Dawley
Parameters: regimen Daily Repeat, gender Male, age 6-8 weeks
Conditions: in vivo, po, route oral GAVAGE, vehicle .5 % CMC; for ABSOLUTE BASOPHIL / ABSOLUTE EOSINOPHIL / ABSOLUTE LYMPHOCYTE / ABSOLUTE MONOCYTE / ABSOLUTE SEGMENTED NEUTROPHIL / BASOPHIL / EOSINOPHIL / ERYTHROCYTE COUNT / HEMATOCRIT / HEMOGLOBIN / LEUKOCYTE COUNT / LYMPHOCYTE / MEAN CORPUSCULAR HEMOGLOBIN / MEAN CORPUSCULAR HEMOGLOBIN CONCENTRATION / MEAN CORPUSCULAR VOLUME / MONOCYTE / NEUTROPHIL / NUCLEATED RED BLOOD CELLS / PLATELET COUNT: tissue Blood; for ALANINE AMINOTRANSFERASE / ALBUMIN / ALKALINE PHOSPHATASE / ASPARTATE AMINOTRANSFERASE / BLOOD UREA NITROGEN / CARBON DIOXIDE / CHLORIDE / CHOLESTEROL / CREATINE PHOSPHOKINASE / CREATININE / GLUCOSE / LACTATE DEHYDROGENASE / LIPASE / PHOSPHORUS / POTASSIUM / SODIUM / TOTAL BILIRUBIN / TOTAL PROTEIN / URIC ACID: tissue Plasma
[1] = 0 mg/kg, 72 h, dose level Control, time 3 day
[2] = 0 mg/kg, 120 h, dose level Control, time 5 day
[3] = 10 mg/kg, 72 h, dose level Low, time 3 day

CCOC(=O)[C@H](CCc1ccccc1)N[C@@H](C)C(=O)N1Cc2ccccc2C[C@H]1C(=O)O
ABSOLUTE BASOPHIL [1]: 0 CELLS/uL
ABSOLUTE EOSINOPHIL [1]: 0 CELLS/uL
ABSOLUTE LYMPHOCYTE [1]: 12191.17 CELLS/uL
ABSOLUTE MONOCYTE [1]: 183.17 CELLS/uL
ABSOLUTE SEGMENTED NEUTROPHIL [1]: 1192.33 CELLS/uL
BASOPHIL [1]: 0%
EOSINOPHIL [1]: 0%
ERYTHROCYTE COUNT [1]: 5.51 x10E6/uL
HEMATOCRIT [1]: 35.45%
HEMOGLOBIN [1]: 13.82 G/DL
LEUKOCYTE COUNT [1]: 13.57 x10E3/uL
LYMPHOCYTE [1]: 89.83%
MEAN CORPUSCULAR HEMOGLOBIN [1]: 25.1 pg
MEAN CORPUSCULAR HEMOGLOBIN CONCENTRATION [1]: 38.98 G/DL
MEAN CORPUSCULAR VOLUME [1]: 64.42 fL
MONOCYTE [1]: 1.33%
NEUTROPHIL [1]: 8.83%
NUCLEATED RED BLOOD CELLS [1]: 0 /100WBC
PLATELET COUNT [1]: 1118.17 x10E3/uL
ALANINE AMINOTRANSFERASE [1]: 55 u/L
ALBUMIN [1]: 4.15 G/DL
ALKALINE PHOSPHATASE [1]: 449.5 u/L
ASPARTATE AMINOTRANSFERASE [1]: 112.83 u/L
BLOOD UREA NITROGEN [1]: 17.33 mg/dL
CARBON DIOXIDE [1]: 29.5 mmol/L
CHLORIDE [1]: 101 MEQ/L
CHOLESTEROL [1]: 70 mg/dL
CREATINE PHOSPHOKINASE [1]: 1325.83 u/L
CREATININE [1]: 0.18 mg/dL
GLUCOSE [1]: 171.5 mg/dL
LACTATE DEHYDROGENASE [1]: 386 u/L
LIPASE [1]: 10 u/L
PHOSPHORUS [1]: 11.57 mg/dL
POTASSIUM [1]: 6.21 MEQ/L
SODIUM [1]: 141.65 MEQ/L
TOTAL BILIRUBIN [1]: 0.15 mg/dL
TOTAL PROTEIN [1]: 5.75 G/DL
URIC ACID [1]: 1.28 mg/dL
ABSOLUTE BASOPHIL [2]: 0 CELLS/uL
ABSOLUTE EOSINOPHIL [2]: 138.17 CELLS/uL
ABSOLUTE LYMPHOCYTE [2]: 13283.17 CELLS/uL
ABSOLUTE MONOCYTE [2]: 303.83 CELLS/uL
ABSOLUTE SEGMENTED NEUTROPHIL [2]: 1308.17 CELLS/uL
BASOPHIL [2]: 0%
EOSINOPHIL [2]: 1%
ERYTHROCYTE COUNT [2]: 5.32 x10E6/uL
HEMATOCRIT [2]: 33.8%
HEMOGLOBIN [2]: 13.63 G/DL
LEUKOCYTE COUNT [2]: 15.03 x10E3/uL
LYMPHOCYTE [2]: 88.33%
MEAN CORPUSCULAR HEMOGLOBIN [2]: 25.68 pg
MEAN CORPUSCULAR HEMOGLOBIN CONCENTRATION [2]: 40.35 G/DL
MEAN CORPUSCULAR VOLUME [2]: 63.67 fL
MONOCYTE [2]: 1.83%
NEUTROPHIL [2]: 8.83%
NUCLEATED RED BLOOD CELLS [2]: 0 /100WBC
PLATELET COUNT [2]: 1097.5 x10E3/uL
ALANINE AMINOTRANSFERASE [2]: 54.5 u/L
ALBUMIN [2]: 4.27 G/DL
ALKALINE PHOSPHATASE [2]: 337 u/L
ASPARTATE AMINOTRANSFERASE [2]: 94.67 u/L
BLOOD UREA NITROGEN [2]: 17 mg/dL
CARBON DIOXIDE [2]: 28.33 mmol/L
CHLORIDE [2]: 101.5 MEQ/L
CHOLESTEROL [2]: 71.33 mg/dL
CREATINE PHOSPHOKINASE [2]: 628.17 u/L
CREATININE [2]: 0.19 mg/dL
GLUCOSE [2]: 177.83 mg/dL
LACTATE DEHYDROGENASE [2]: 500.5 u/L
LIPASE [2]: 9.5 u/L
PHOSPHORUS [2]: 12.3 mg/dL
POTASSIUM [2]: 5.63 MEQ/L
SODIUM [2]: 143.03 MEQ/L
TOTAL BILIRUBIN [2]: 0.2 mg/dL
TOTAL PROTEIN [2]: 6.02 G/DL
URIC ACID [2]: 1.5 mg/dL
ABSOLUTE BASOPHIL [3]: 0 CELLS/uL
ABSOLUTE EOSINOPHIL [3]: 39 CELLS/uL
ABSOLUTE LYMPHOCYTE [3]: 11213 CELLS/uL
ABSOLUTE MONOCYTE [3]: 0 CELLS/uL
ABSOLUTE SEGMENTED NEUTROPHIL [3]: 1148 CELLS/uL
BASOPHIL [3]: 0%
EOSINOPHIL [3]: 0.33%
ERYTHROCYTE COUNT [3]: 5.3 x10E6/uL
HEMATOCRIT [3]: 34.07%
HEMOGLOBIN [3]: 13.93 G/DL
LEUKOCYTE COUNT [3]: 12.4 x10E3/uL
LYMPHOCYTE [3]: 90.33%
MEAN CORPUSCULAR HEMOGLOBIN [3]: 26.33 pg
MEAN CORPUSCULAR HEMOGLOBIN CONCENTRATION [3]: 40.9 G/DL
MEAN CORPUSCULAR VOLUME [3]: 64.37 fL
MONOCYTE [3]: 0%
NEUTROPHIL [3]: 9.33%
NUCLEATED RED BLOOD CELLS [3]: 0 /100WBC
PLATELET COUNT [3]: 1446.33 x10E3/uL
